Test results taken from patent publication US20100221388A1, “INSTANTLY SOLUBLE COMPOSITIONS FOR CALCIUM FORTIFICATION OF BEVERAGES” (priority 2008, published 2010).
Each block holds one compound with its values, some of them ahead of it.

Assays:
Casein = assay: coagulation in casein-containing preparations with calcium salts (150 mg elemental calcium); assay type: physicochemical; settings: room temperature
[1] = visual test of transparency for calcium-oxalate crystal formation in hot black tea with calcium salt (100 mg elemental calcium); assay type: physicochemical; settings: 240 ml hot black tea
Procedure: The data describes the effect of different levels of Mg and ascorbic acid (vitamin C) on appearance of visible calcium oxalate precipitation. The experiments were performed with various soluble calcium salts by adding different levels of ascorbic acid and Magnesium citrate and testing the impact on formation of calcium-oxalate crystals in tea preparations. […] The calcium salt mixture was added and stirred into a cup holding 240 ml of hot black tea made with boiling tap water. A visual test of transparency was made at 5, 10, 15 and 20 minutes after adding the mixture to the tea for determining any impact on solution clarity by formation of calcium-oxalate crystals. If visible crystals were formed within 10 minutes the result was determined “unacceptable”, if visible crystals were formed between 10-20 minutes then the results was marked “borderline”. If no crystals were visible within 20 minutes the result was marked “acceptable”. FIGS. 1-5 show the experimental results for various calcium salts. In each of the figures the X-axis marks the amount of Magnesium Citrate (mg) and the Y-axis marks the amount of ascorbic acid (mg). Each indicia of a circle, diamond or square signifies the experimental outcome of a separate experiment; circles indicate an acceptable outcome, diamonds indicate a borderline acceptable (less than optimal) outcome, and squares indicate an unacceptable outcome.

[2] = casein-containing non-dairy creamer in water

level sufficient to limit the coagulation to a minimal and acceptable change in appearance (Casein; [2]): 825 mg
lowest level required for preventing coagulation (Casein; [2]): 3000 mg
lowest level that prevented coagulation (Casein; half & half (mix of milk and cream)): 500 mg
amount sufficient to prevent coagulation (Casein; whole milk (about 3% fat)): 10 mg
SMILES: O=P([O-])([O-])O.[K+].[K+] [PP, Potassium phosphate dibasic anhydrous]

minimal amount of ascorbic acid required to delay or prevent calcium oxalate formation ([1]; in general across calcium salts (FIGS. 1-5)): 30 mg
SMILES: O=C1O[C@H]([C@@H](O)CO)C(O)=C1O [ascorbic acid]

SMILES: CC(=O)[O-].CC(=O)[O-].[Ca+2] [calcium acetate, Calcium diacetate]
need for additives to delay or prevent calcium oxalate formation, by calcium salt ([1]; ascorbic acid with or without Magnesium Citrate): additional “competing salt” is required even with higher level of ascorbic acids
